# Test results: patent publication US10160812B2, “Bispecific HER2 antibodies” (MedImmune, LLC, priority 2014, dated 2018)
# Experiments:
# ST225 model = test: PDX tumor model (HER2-3+ breast cancer); assay type: in vivo, Athymic nude mice; conditions: Bs2-4T at 3 mg/kg
# Experimental: All mouse experiments were carried out in compliance with the guidelines published by the Association for Assessment and Accreditation of Laboratory Animal Care (AAALAC) and protocols approved by the MedImmune Institutional Animal Care and Use Committee. Athymic nude mice between 4-8 weeks of age were used in the studies. In subcutaneous CBX models, animals were injected unilaterally on the right flank with tumor cells harvested from culture at a specific passage lot. In orthotopic CBX models, xenografts were established by injecting 5×10^6 cells per mouse (suspended in 50% matrigel) into the mammary fat pad on the right flank of animals. In PDX models, animals are implanted unilaterally on the flank with tumor fragments harvested from host animals each implanted from a specific passage lot. Pre-study tumor volumes were recorded for each experiment beginning approximately one week prior to its estimated start date. When tumors reach the appropriate tumor volume initiation (TVI) range (typically 150-250 mm^3), animals are randomized into treatment and control groups and dosing initiated. […] Animals were observed daily and tumor dimensions and body weights were measured and recorded twice weekly. Tumor volumes are calculated using the following formula: tumor volume=π÷6 (length×width^2). […]
# JIMT-1 model = test: CBX orthotopic tumor model (T-DM1 non-responder); assay type: in vivo, Athymic nude mice; conditions: JIMT-1 orthotopic CBX; Bs2-4T at 3 mg/kg
# Experimental: All mouse experiments were carried out in compliance with the guidelines published by the Association for Assessment and Accreditation of Laboratory Animal Care (AAALAC) and protocols approved by the MedImmune Institutional Animal Care and Use Committee. Athymic nude mice between 4-8 weeks of age were used in the studies. In subcutaneous CBX models, animals were injected unilaterally on the right flank with tumor cells harvested from culture at a specific passage lot. […] In PDX models, animals are implanted unilaterally on the flank with tumor fragments harvested from host animals each implanted from a specific passage lot. Pre-study tumor volumes were recorded for each experiment beginning approximately one week prior to its estimated start date. […] Animals were dosed once weekly unless otherwise specified with test articles via intravenous or intraperitoneal injection. Animals were observed daily and tumor dimensions and body weights were measured and recorded twice weekly.
# human HER3 = molecular target: T1, human HER3 (Homo sapiens, UniProt P21860); test: Capture ELISA binding specificity / species cross-reactivity; conditions: recombinant extracellular domain protein
# T1 construct: recombinant extracellular domain proteins: human EGFR, human HER2, human HER3, human HER4, mouse Her2, or cynomolgus monkey Her2
# Text: To determine whether 39S retains the binding specificity and species cross-reactivity of its parental antibody AZ1.39.1, binding of 39S to the receptors of human ErbB family (EGFR, HER2, HER3, and HER4), the mouse Her2, and the cynomolgus monkey Her2 was examined by capture ELISA. Briefly, 96-well plates were coated with one of the following recombinant extracellular domain proteins: human EGFR, human HER2, human HER3, human HER4, mouse Her2, or cynomolgus monkey Her2. Antibody to be tested was prepared by diluting in a stepwise 1:3 serial dilution ranging from 50 nM down to 0.28 pM and then added to the wells in duplicate. After one hour of incubation, plates were washed, and goat anti-human IgG Fab HRP-conjugated secondary antibody was added to each well and the plates were incubated for 1 hour. The plates were washed and TMB substrate was added and incubated for 5-20 min to allow color development. The stop solution was added to the wells at the end of reaction and the plates were read at 450 nm. Binding signal (absorbance at 450 nm) was plotted against antibody concentration using Prism software.
# Binding specificity and species cross-reactivity of bispecific antibodies to the recombinant extracellular domain protein of human EGFR, human HER2, human HER3, human HER4, mouse Her2, or cynomolgus monkey Her2 were determined by capture ELISA as described in Example 1.
# To determine whether the conjugation of tubulysin 1508 alters antigen binding specificity and species cross-reactivity, binding activity of bispecific ADC to the recombinant extracellular domain protein of human EGFR, human HER2, human HER3, human HER4, mouse Her2, and cynomolgus monkey Her2 were confirmed by capture ELISA as described in Example 1.
# mouse Her2 = mouse Her2 (Mus musculus, UniProt P70424); test: ProteOn SPR binding of 39S to captured Mouse Her2; conditions: Mouse Her2 control
# Text: The variant nomenclature denotes types of variants (KO/KI) and the swapped regions with amino acid numbering. Amino acid positions were denoted basing on the numbering scheme of mature human HER2 sequences without its signal peptide. The expression levels of all variants were monitored by an anti-His polyclonal antibody. The binding profiles of 39S to these variants were characterized using a SPR based instrument ProteOn™ by capturing variants on sensor surfaces using anti-human and mouse Her2 polyclonal antibodies.
# The binding characteristics of 39S to chimeric human/mouse variants were studied using a ProteOn™ XPR36 instrument (BioRad). Standard amine coupling was used to immobilize an anti-human or mouse Her2 polyclonal antibody (R&D System) in 10 mM sodium acetate (pH 5.0) to the surface of a GLC biosensor chip at ˜5000 resonance units (RU) for each channel. The chimeric proteins in cell culture supernatant were injected and captured by anti-human or mouse polyclonal antibodies onto the GLC surface with a ˜200RU response. Anti-HER2 mAb 39S was diluted in phosphate-buffered saline (PBS) (pH 7.4) with 0.005% Tween-20 from 10 nM to 0.625 nM (1:2 dilution), and injected at 100 μL/min for 180 sec with a 600-second dissociation time. Expression levels of chimeric variants were monitored by flowing anti-His polyclonal antibody (MedImmune) under the same conditions as injecting 39S. […]
# Chain of mouse Her2 (P70424 23-1256): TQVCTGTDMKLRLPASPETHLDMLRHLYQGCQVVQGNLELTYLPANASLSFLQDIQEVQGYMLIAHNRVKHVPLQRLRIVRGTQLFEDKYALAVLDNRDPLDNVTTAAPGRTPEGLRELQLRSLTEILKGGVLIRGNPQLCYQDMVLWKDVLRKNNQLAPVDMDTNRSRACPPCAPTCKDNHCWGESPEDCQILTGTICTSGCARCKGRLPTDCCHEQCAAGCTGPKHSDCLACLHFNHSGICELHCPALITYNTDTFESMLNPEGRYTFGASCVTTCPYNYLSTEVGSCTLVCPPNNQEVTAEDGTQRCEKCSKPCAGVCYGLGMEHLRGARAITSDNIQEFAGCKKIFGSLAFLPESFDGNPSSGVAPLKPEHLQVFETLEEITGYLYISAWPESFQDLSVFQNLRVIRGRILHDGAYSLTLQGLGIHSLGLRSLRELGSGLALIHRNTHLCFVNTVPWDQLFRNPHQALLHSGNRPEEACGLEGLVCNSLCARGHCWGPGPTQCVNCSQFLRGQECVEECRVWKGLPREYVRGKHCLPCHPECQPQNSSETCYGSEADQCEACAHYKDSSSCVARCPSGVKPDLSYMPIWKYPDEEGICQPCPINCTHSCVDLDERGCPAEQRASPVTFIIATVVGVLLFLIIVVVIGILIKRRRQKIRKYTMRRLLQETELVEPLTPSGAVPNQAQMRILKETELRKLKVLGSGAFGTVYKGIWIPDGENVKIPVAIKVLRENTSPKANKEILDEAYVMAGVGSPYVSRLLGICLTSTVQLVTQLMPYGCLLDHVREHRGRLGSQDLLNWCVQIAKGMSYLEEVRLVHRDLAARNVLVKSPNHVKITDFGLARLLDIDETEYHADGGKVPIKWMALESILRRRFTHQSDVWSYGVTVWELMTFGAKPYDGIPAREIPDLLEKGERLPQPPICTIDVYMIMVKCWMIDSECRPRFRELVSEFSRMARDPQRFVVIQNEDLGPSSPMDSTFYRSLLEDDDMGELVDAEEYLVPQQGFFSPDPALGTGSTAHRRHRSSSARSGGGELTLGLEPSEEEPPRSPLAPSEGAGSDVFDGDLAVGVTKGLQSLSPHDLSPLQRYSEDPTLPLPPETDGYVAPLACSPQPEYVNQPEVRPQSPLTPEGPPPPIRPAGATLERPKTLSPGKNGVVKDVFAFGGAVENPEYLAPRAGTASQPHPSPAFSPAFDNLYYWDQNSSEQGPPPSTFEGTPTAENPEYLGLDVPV
binding by capture ELISA (human HER3),The binding affinity of 39S (KD) (mouse Her2),Molecule,in vivo activity (tumor growth) (ST225 model),in vivo activity (tumor growth) (JIMT-1 model)
–,–,T-DM1 [reference compound],tumor stasis,no activity
not,No,"39S: lead optimized monoclonal antibody derived from the 1.39.1 antibody; VH SEQ ID NO:15, VL SEQ ID NO:16 (antibody, V domains shown) VH: EVQLVESGGGLVKPGGSLRLSCAASGFTFSSYSMSWVRQAPGKGLEWVSSISSSSSYIYYADSVKGRFTISRDNAKNSLYLQMNSLRAEDTAVYYCARGGDAYNYYYFDYWGQGTLVTVSS VL: DIVMTQTPLSLSVTPGQPASISCKSSQSVFFRSNNKNILAWYLQKPGQPPQLLIYWASSRESGVPDRFSGSGSGTDFTLKISRVEAEDVGVYYCQQYFGSPFTFGPGTKVDIK",–,–
